system: not listed separately; experiment: Octanol-water partition coefficient, log P of the compound; assay type: physicochemical

Structure (SMILES)	logP
CCN1C(=O)c2c(nc(Cc3ccccc3)n2Cc2ccc(C)cc2)N2C1=N[C@@H]1CCC[C@@H]12	5.95
CCOc1nc2c(n1Cc1ccc(OC)c(Br)c1)C(=O)N(CC)C1=N[C@@H]3CCC[C@@H]3N12	4.93
CCOc1nc2c(n1Cc1ccc(O)c(Cl)c1)C(=O)N(CC)C1=N[C@@H]3CCC[C@@H]3N12	4.4
CCN1C(=O)c2c(nc(C(N)=O)n2Cc2ccc(O)c(Cl)c2)N2C[C@@H](Cc3ccccc3)N=C12	4.06
CCN1C(=O)c2c(nc(OC)n2Cc2ccc(O)c(Br)c2)N2C1=N[C@@H]1CCC[C@@H]12	4.33
CCN1C(=O)c2c(nc(C(N)=O)n2Cc2ccc(O)cc2)N2C1=N[C@@H]1CCC[C@@H]12	2.2
CCN1C(=O)c2c(nc(Cc3ccccc3)n2Cc2ccc(Cl)cc2)N2C1=N[C@@H]1CCC[C@@H]12	6.03
CCN1C(=O)c2c(nc(C(N)=O)n2Cc2ccc(O)c(Br)c2)N2C1=N[C@@H]1CCC[C@@H]12	3.03
CCOc1nc2c(n1Cc1ccc(OC)c(Cl)c1)C(=O)N(CC)C1=N[C@@H]3CCC[C@@H]3N12	4.66
CCN1C(=O)c2c(nc(C#Cc3ccccc3)n2Cc2ccc(O)cc2)N2C1=N[C@@H]1CCC[C@@H]12	5.24
CCN1C(=O)c2c(nc(OC)n2Cc2ccc(OC)c(C#N)c2)N2C[C@@H](Cc3ccccc3)N=C12	5.1
CCSc1nc2c(n1Cc1ccc(O)cc1)C(=O)N(CC)C1=N[C@@H]3CCC[C@@H]3N12	4.41
CCN1C(=O)c2c(ncn2Cc2ccc(OC)c(Br)c2)N2C1=N[C@@H]1CCC[C@@H]12	3.74
CCN1C(=O)c2c(nc(C(=O)NC)n2Cc2ccc(O)c(Cl)c2)N2C1=N[C@@H]1CCC[C@@H]12	3
CCN1C(=O)c2c(nc(C(=O)OC)n2Cc2ccc(OC)cc2)N2C1=N[C@@H]1CCC[C@@H]12	3.38
CCN1C(=O)c2c(nc(C#N)n2Cc2ccc(OC)cc2)N2C1=N[C@@H]1CCC[C@@H]12	3.59
CCN1C(=O)c2c(nc(OC)n2Cc2ccc(OC)c(Br)c2)N2C[C@@H](Cc3ccccc3)N=C12	5.89
CCN1C(=O)c2c(nc(OC)n2Cc2ccc(O)c(Br)c2)N2C[C@@H](Cc3ccccc3)N=C12	5.63
CCN1C(=O)c2c(nc(C#Cc3ccccc3)n2Cc2ccc(OC)cc2)N2C1=N[C@@H]1CCC[C@@H]12	5.5

Structure (SMILES)	logP
CCN1C(=O)c2c(nc(C(N)=O)n2Cc2ccc(OC)cc2)N2C1=N[C@@H]1CCC[C@@H]12	2.47
CCN1C(=O)c2c(nc(C(F)(F)F)n2Cc2ccc(O)cc2)N2C1=N[C@@H]1CCC[C@@H]12	4.22
CCN1C(=O)c2c(nc(OC)n2Cc2ccc(O)c(Cl)c2)N2C[C@@H](Cc3ccccc3)N=C12	5.36
CCN1C(=O)c2c(nc(C(N)=O)n2Cc2ccc(OC)c(Br)c2)N2C1=N[C@@H]1CCC[C@@H]12	3.3
CCN1C(=O)c2c(nc(OC)n2Cc2ccc(O)c(Cl)c2)N2C1=N[C@@H]1CCC[C@@H]12	4.06
CCN1C(=O)c2c(nc(C(N)=O)n2Cc2ccc(OC)c(Cl)c2)N2C[C@@H](Cc3ccccc3)N=C12	4.32
CCN1C(=O)c2c(nc(C(=O)NC)n2Cc2ccc(OC)c(Cl)c2)N2C1=N[C@@H]1CCC[C@@H]12	3.26
CCOc1nc2c(n1Cc1ccc(OC)cc1)C(=O)N(CC)C1=N[C@@H]3CCC[C@@H]3N12	4.1
CCN1C(=O)c2c(nc(OC)n2Cc2ccc(OC)c(Cl)c2)N2C1=N[C@@H]1CCC[C@@H]12	4.32
CCN1C(=O)c2c(nc(C#Cc3ccccc3)n2Cc2ccc(Cl)cc2)N2C1=N[C@@H]1CCC[C@@H]12	6.19
CCN1C(=O)c2c(nc(OCc3ccccc3)n2Cc2ccc(O)c(Cl)c2)N2C[C@@H](Cc3ccccc3)N=C12	7.09
CCN1C(=O)c2c(nc(Cc3ccccc3)n2Cc2ccc(OC)c(Cl)c2)N2C1=N[C@@H]1CCC[C@@H]12	5.9
CCN1C(=O)c2c(nc(Cc3ccccc3)n2Cc2ccccc2)N2C1=N[C@@H]1CCC[C@@H]12	5.47
CCSc1nc2c(n1Cc1ccc(OC)cc1)C(=O)N(CC)C1=N[C@@H]3CCC[C@@H]3N12	4.67
CCN1C(=O)c2c(ncn2Cc2ccc(OC)c(Cl)c2)N2C1=N[C@@H]1CCC[C@@H]12	3.47
CCN1C(=O)c2c(nc(C(N)=O)n2Cc2ccc(O)c(Cl)c2)N2C1=N[C@@H]1CCC[C@@H]12	2.76
CCN1C(=O)c2c(nc(OC)n2Cc2ccc(OC)c(Br)c2)N2C1=N[C@@H]1CCC[C@@H]12	4.59
CCN1C(=O)c2c(nc(Cc3ccccc3)n2Cc2ccc3c(c2)OCO3)N2C1=N[C@@H]1CCC[C@@H]12	5.25

target: cGMP-specific 3',5'-cyclic phosphodiesterase (Homo sapiens, UniProt O76074)

Structure (SMILES)	IC50 [nM]
CCN1C(=O)C2C(N=C(OC)N2Cc2ccc(OC)c(Cl)c2)N2C[C@@H](Cc3ccccc3)N=C12 (some centres undefined)	1.58
CCN1C(=O)C2C(N=CN2Cc2ccc(O)c(Br)c2)N2C1=N[C@@H]1CCC[C@@H]12 (some centres undefined)	6.31

— ChEMBL document CHEMBL1158171, “Bioactivities of a series of phosphodiesterase type 5 (PDE-5) inhibitors as modelled by MIA-QSAR” (Eur J Med Chem, 2008)
